Measured values published in PubChem BioAssay (NCI).
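Cultured in 96-well plates, cells were exposed to test compound for 48 hours across five concentrations. The concentration for 50% growth inhibition is given as GI50. TGI is the concentration that stops growth completely.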

What follows are compounds tested on SK-MEL-28 melanoma (assay: growth of human tumour cells (NCI), 48 h).

`C=CC1CC12C(=O)C1OC2(C)C2C(=O)c3cc4ccccc4cc3C(=O)C12` (stereo not given) was tested, and the GI50 was 24.7 µM.

`C=CC1CC12C(=O)C1OC2(C)C2C(=O)c3cc4ccccc4cc3C(=O)C12` (stereo not given) and `O=C1c2ccccc2C(=O)C1(Cl)C1(S(=O)(=O)O)c2ccccc2-c2ccccc21` cannot be ordered by TGI: > 100 µM for the first, > 100 µM for the second.

These compounds were tested on SNB-19 CNS (assay: growth of human tumour cells (NCI), 48 h).

Point of comparison: `Cc1cc(Br)cc(C)c1NC(=O)C(=O)C(C(=O)c1ccc2ccccc2c1)C1OC(=O)c2ccccc21` (stereo not given), TGI 29.3 µM. Against it:
- O=[n+]1c2c(n([O-])c3ccccc31)CCCCCCCCCC2 — higher, > 100 µM
- CNC(=S)N(C)C(=S)Nn1c(=O)c(C)nn(C)c1=S — higher, > 100 µM
- CCCCCCCCCC/C=C/CC(=O)SCCNC(=O)CCNC(=O)[C@@H](O)C(C)(C)COP(=O)(O)OP(=O)(O)OCC1OC(n2cnc3c(N)ncnc32)C(O)C1OP(=O)(O)O (stereo not given in full) — not separable, > 10 µM
- O=C1CN=C(C[N+](=O)[O-])c2ccccc21 — higher, > 100 µM
- S=C(N/N=C/c1ccco1)NC12CC3CC(CC(C3)C1)C2 — higher, > 100 µM
- CS(=O)(=O)N/N=C/CN1C(=O)c2ccccc2C1=O — higher, > 100 µM
- Ic1ccc(Nc2nc3nonc3nc2Nc2ccc(I)cc2)cc1 — higher, > 100 µM
- CC(=O)O.CC(=O)O.CC(=O)O.CC(=O)O.CC(=O)O.CC(=O)O.O.[Ti].[Ti] — higher, > 100 µM
- COc1ccc(OC)c(NC(=O)C(=O)NNC(=O)c2sc(NNC(C)=O)nc2C)c1 — higher, > 100 µM
- O=C(Nc1ccc(OS(=O)(=O)c2ccccc2)cc1)C12CC3CC(CC(C3)C1)C2 — higher, > 100 µM
- O=[N+]([O-])c1nccn1CC(O)c1ccc(F)cc1 (stereo not given) — higher, > 100 µM
- COc1ccc(NC(=O)CCc2cc(-c3ccc(O)c(OC)c3)nc(NC#N)n2)cc1 — higher, > 100 µM
- COC(=O)c1cc2c3ccccc3n(C(C)=O)c2cn1 — higher, > 100 µM
- O=S(=O)([O-])c1ccc2c(c1)-c1nc-2nc2[n-]c(nc3nc(nc4[n-]c(n1)c1ccc(S(=O)(=O)[O-])cc41)-c1cc(S(=O)(=O)[O-])ccc1-3)c1ccc(S(=O)(=O)[O-])cc21.[Cu+2].[Na+] — higher, > 100 µM
- COc1ccc(N(C)c2ncnc3occ(C)c23)cc1 — higher, > 100 µM
- CCCCOC(=O)C1C(c2ccc(Cl)cc2)NC(c2ccc(Cl)cc2)C(C(=O)OCCCC)S1(=O)=O (stereo not given) — higher, > 100 µM
- CCOC(=O)Oc1c(OC)cc(C(=O)NC2CCc3cc(OC)c(OC)c(OC)c3-c3ccc(SC)c(=O)cc32)cc1OC (stereo not given) — 1.8-fold higher, 53.6 µM
- CC(=O)Nc1ccc(C(=O)NN2C(=O)C(Cl)C2c2ccccc2)cc1 (stereo not given) — higher, > 100 µM
- CC(C)(C)OC(=O)NCC(=O)OCc1ccccc1 — higher, > 100 µM
- CC(C)(C)[SiH]12(OC(C(F)(F)F)(C(F)(F)F)c3ccccc31)OC(C(F)(F)F)(C(F)(F)F)c1ccccc12 — 2.2-fold lower, 13.1 µM
- CSc1nc2c(nc(C)c(=O)n2C2OCC(OC(C)=O)C(OC(C)=O)C2OC(C)=O)c(=O)[nH]1 (stereo not given) — higher, > 100 µM
- O=S(O)CCCCSSCC(O)C(O)CSSCCCCS(=O)O (stereo not given) — higher, > 100 µM
- O=C1OC(c2ccccc2)=N/C1=C/C=C/c1ccco1 — higher, > 100 µM
- Clc1ccc2c(NCCCNc3nccc(Nc4ccc(Br)cc4)n3)ccnc2c1 — 8.8-fold lower, 3.32 µM
- Cc1ccccc1N1C(=O)/C(=C/c2ccc(N(CCC#N)CCC#N)cc2)N=C1c1cc([N+](=O)[O-])ccc1Cl — higher, > 100 µM
- Cc1ccc(S(=O)(=O)NCC2CCCCC2=O)cc1 (stereo not given) — higher, > 100 µM
- CCC[CH2][Sn]([CH2]CCC)([CH2]CCC)[O]C(=O)CC — 87-fold lower, 0.335 µM
- CNC(=S)NC1CCCCC1NC(=S)NC (stereo not given) — higher, > 100 µM
- CC1OC(n2cc(F)c(=O)[nH]c2=O)C=CC1O (stereo not given) — higher, > 100 µM
- C=C(C=O)[C@@H]1C2OC(=O)C(=C)[C@@H]2CC(O)[C@@]1(C)CC (stereo not given in full) — higher, > 89.7 µM
- C=C(CCCCC)CN1CCCC1[C@@](C)(O)CC(=O)OCC (stereo not given in full) — higher, > 100 µM
- NC(=NCCCOc1ccc(Cl)cc1)Nc1ccc(C(F)(F)F)cc1 — 1.5-fold lower, 19.5 µM
- C=CC1CC12C(=O)C1OC2(C)C2C(=O)c3cc4ccccc4cc3C(=O)C12 (stereo not given) — higher, > 100 µM

For `OCCN1CN(CCO)CN(c2nc(N3CN(CCO)CN(CCO)C3)nc(N3CN(CCO)CN(CCO)C3)n2)C1`, the GI50 was 0.00108 µg/mL.

`OCCN1CN(CCO)CN(c2nc(N3CN(CCO)CN(CCO)C3)nc(N3CN(CCO)CN(CCO)C3)n2)C1` gave a TGI of 0.063 µg/mL.

Point of comparison: `Clc1ccc2c(NCCCNc3nccc(Nc4ccc(Br)cc4)n3)ccnc2c1`, GI50 1.75 µM. Against it:
- Ic1ccc(Nc2nc3nonc3nc2Nc2ccc(I)cc2)cc1 — 5.4-fold lower, 0.324 µM
- CC(=O)O.CC(=O)O.CC(=O)O.CC(=O)O.CC(=O)O.CC(=O)O.O.[Ti].[Ti] — 37-fold higher, 65.6 µM
- O=C(Nc1ccc(OS(=O)(=O)c2ccccc2)cc1)C12CC3CC(CC(C3)C1)C2 — higher, > 100 µM
- O=S(=O)([O-])c1ccc2c(c1)-c1nc-2nc2[n-]c(nc3nc(nc4[n-]c(n1)c1ccc(S(=O)(=O)[O-])cc41)-c1cc(S(=O)(=O)[O-])ccc1-3)c1ccc(S(=O)(=O)[O-])cc21.[Cu+2].[Na+] — higher, > 68.4 µM
- COc1ccc(N(C)c2ncnc3occ(C)c23)cc1 — lower, < 0.01 µM
- CCOC(=O)Oc1c(OC)cc(C(=O)NC2CCc3cc(OC)c(OC)c(OC)c3-c3ccc(SC)c(=O)cc32)cc1OC (stereo not given) — 74-fold lower, 0.0235 µM
- CCC[CH2][Sn]([CH2]CCC)([CH2]CCC)[O]C(=O)CC — 10-fold lower, 0.169 µM
- NC(=NCCCOc1ccc(Cl)cc1)Nc1ccc(C(F)(F)F)cc1 — 1.6-fold higher, 2.79 µM
- C=CC1CC12C(=O)C1OC2(C)C2C(=O)c3cc4ccccc4cc3C(=O)C12 (stereo not given) — 32-fold higher, 56.7 µM

Each compound was assayed on UACC-257 melanoma (assay: growth of human tumour cells (NCI), 48 h).

With `O=[n+]1c2c(n([O-])c3ccccc31)CCCCCCCCCC2` the TGI was > 100 µM.
